This passage reports EC50 results from patent publication US9409884B2 (Rigel Pharmaceuticals, Inc., priority 2012, dated 2016).

The first experiment addresses AMPK. In words: AMPK activation, enzyme-linked immunosorbent assay. The class given is biochemical. To be noted: Table 8, compounds of Table 1. An outline of the steps:
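Read-out: ELISA, used to detect compound-driven activation of AMPK.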
In general, EC50 refers to the concentration that produces a half-maximal response. A high value points to weaker potency. The compound `N#Cc1ccc(CN2CCC(NC(=O)c3cc4cc(O[C@@H]5CCN(Cc6ccc(-n7cccn7)cc6)C[C@H]5F)ccc4o3)CC2)cc1` [Compound 1-164, 5-((3,4-trans)-1-(4-(1H-pyrazol-1-yl)benzyl)-3-fluoropiperidin-4-yloxy)-N-(1-(4-cyanobenzyl)piperidin-4-yl)benzofuran-2-carboxamide] returned an EC50 of 100 to 500 nM. `N#Cc1ccc(CN2CCC(NC(=O)c3cc4cc(O[C@@H]5CCN(Cc6ccc(Oc7ccc(F)cc7)cc6)C[C@H]5F)ccc4o3)CC2)cc1` [Compound 1-165, N-(1-(4-cyanobenzyl)piperidin-4-yl)-5-((3,4-trans)-3-fluoro-1-(4-(4-fluorophenoxy)benzyl)piperidin-4-yloxy)benzofuran-2-carboxamide]: the EC50 was less than 100 nM.

For the compound `N#Cc1ccc(CN2CCC(NC(=O)c3cc4cc(O[C@@H]5CCN(Cc6cnn(-c7ccc(C#N)cc7)c6)C[C@H]5F)ccc4o3)CC2)cc1` [Compound 1-166, N-(1-(4-cyanobenzyl)piperidin-4-yl)-5-((3,4-trans)-1-((1-(4-cyanophenyl)-1H-pyrazol-4-yl)methyl)-3-fluoropiperidin-4-yloxy)benzofuran-2-carboxamide], the EC50 is less than 100 nM. In turn, `CS(=O)(=O)c1ccc(CN2CC[C@@H](Oc3ccc4oc(C(=O)NC5CCN(Cc6ccc(C#N)cc6)CC5)cc4c3)[C@H](F)C2)cc1` [Compound 1-167, N-(1-(4-cyanobenzyl)piperidin-4-yl)-5-((3,4-trans)-3-fluoro-1-(4-(methylsulfonyl)benzyl)piperidin-4-yloxy)benzofuran-2-carboxamide] registered an EC50 of less than 100 nM. Same read-out and setting: the same measure for `N#Cc1ccc(CN2CCC(NC(=O)c3cc4cc(O[C@@H]5CCN(Cc6ccc(OC(F)(F)F)cc6)C[C@H]5F)ccc4o3)CC2)cc1` [Compound 1-168, N-(1-(4-cyanobenzyl)piperidin-4-yl)-5-((3,4-trans)-3-fluoro-1-(4-(trifluoromethoxy)benzyl)piperidin-4-yloxy)benzofuran-2-carboxamide]: less than 100 nM. Still for that read-out and setting: then `O=C(NC1CCN(Cc2ccc(OC(F)(F)F)cc2)CC1)c1cc2cc(O[C@@H]3CCN(Cc4ccc(-n5cccn5)cc4)C[C@H]3F)ccc2o1` [Compound 1-169, 5-((3,4-trans)-1-(4-(1H-pyrazol-1-yl)benzyl)-3-fluoropiperidin-4-yloxy)-N-(1-(4-(trifluoromethoxy)benzyl)piperidin-4-yl)benzofuran-2-carboxamide], with less than 100 nM; and `O=C(NC1CCN(Cc2ccc(OC(F)(F)F)cc2)CC1)c1cc2cc(O[C@@H]3CCN(Cc4ccc(Oc5ccc(F)cc5)cc4)C[C@H]3F)ccc2o1` [Compound 1-170, 5-((3,4-trans)-3-fluoro-1-(4-(4-fluorophenoxy)benzyl)piperidin-4-yloxy)-N-(1-(4-(trifluoromethoxy)benzyl)piperidin-4-yl)benzofuran-2-carboxamide], with less than 100 nM; and `N#Cc1ccc(-n2cc(CN3CC[C@@H](Oc4ccc5oc(C(=O)NC6CCN(Cc7ccc(OC(F)(F)F)cc7)CC6)cc5c4)[C@H](F)C3)cn2)cc1` [Compound 1-171, 5-((3,4-trans)-1-((1-(4-cyanophenyl)-1H-pyrazol-4-yl)methyl)-3-fluoropiperidin-4-yloxy)-N-(1-(4-(trifluoromethoxy)benzyl)piperidin-4-yl)benzofuran-2-carboxamide], with less than 100 nM. Still for that read-out and setting: the same measure for `CS(=O)(=O)c1ccc(CN2CC[C@@H](Oc3ccc4oc(C(=O)NC5CCN(Cc6ccc(OC(F)(F)F)cc6)CC5)cc4c3)[C@H](F)C2)cc1` [Compound 1-172, 5-((3,4-trans)-3-fluoro-1-(4-(methylsulfonyl)benzyl)piperidin-4-yloxy)-N-(1-(4-(trifluoromethoxy)benzyl)piperidin-4-yl)benzofuran-2-carboxamide]: less than 100 nM; for `O=C(NC1CCN(Cc2ccc(OC(F)(F)F)cc2)CC1)c1cc2cc(O[C@@H]3CCN(Cc4ccc(OC(F)(F)F)cc4)C[C@H]3F)ccc2o1` [Compound 1-173, 5-((3,4-trans)-3-fluoro-1-(4-(trifluoromethoxy)benzyl)piperidin-4-yloxy)-N-(1-(4-(trifluoromethoxy)benzyl)piperidin-4-yl)benzofuran-2-carboxamide]: less than 100 nM. Compound `N#Cc1ccc(CN2CCC(NC(=O)c3cc4cc(OC5CCN(Cc6ccc(C(F)(F)F)cc6)CC5)ccc4o3)CC2)cc1` [Compound 1-174, N-(1-(4-cyanobenzyl)piperidin-4-yl)-5-(1-(4-(trifluoromethyl)benzyl)piperidin-4-yloxy)benzofuran-2-carboxamide] had an EC50 of less than 100 nM. The same measure, in the same setting: the same measure for `CS(=O)(=O)c1ccc(CN2CCC(Oc3ccc4oc(C(=O)NC5CCN(Cc6ccc(C#N)cc6)CC5)cc4c3)CC2)cc1` [Compound 1-175, N-(1-(4-cyanobenzyl)piperidin-4-yl)-5-(1-(4-(methylsulfonyl)benzyl)piperidin-4-yloxy)benzofuran-2-carboxamide]: less than 100 nM.

The experiment is the same for the next values; noted with them: Table 9, compounds of Table 2.
On to `N#Cc1ccc(CN2CCC(NC(=O)c3ccc4[nH]c5c(c4c3)CN(C(=O)OCc3ccccc3)CC5)CC2)cc1` [Compound 2-1, benzyl 8-(1-(4-cyanobenzyl)piperidin-4-ylcarbamoyl)-3,4-dihydro-1H-pyrido[4,3-b]indole-2(5H)-carboxylate], for which the EC50 was 1000 to 5000 nM. On the same count and under the same terms, then `O=C(NC1CCN(Cc2ccccc2)CC1)c1ccc2[nH]c3c(c2c1)CN(C(=O)OCc1ccccc1)CC3` [Compound 2-2, benzyl 8-(1-(4-benzyl)piperidin-4-ylcarbamoyl)-3,4-dihydro-1H-pyrido[4,3-b]indole-2(5H)-carboxylate], with 10000 to 50000 nM. Compound `CC(C)(C)OC(=O)N1CCC(NC(=O)c2ccc3[nH]c4c(c3c2)CN(C(=O)OCc2ccccc2)CC4)CC1` [Compound 2-3, benzyl 8-(1-(tert-butoxycarbonyl)piperidin-4-ylcarbamoyl)-3,4-dihydro-1H-pyrido[4,3-b]indole-2(5H)-carboxylate] registered an EC50 of 10000 to 50000 nM. For the compound `N#Cc1ccc(CN2CCC(NC(=O)c3ccc4[nH]c5c(c4c3)CN(Cc3ccccc3)CC5)CC2)cc1` [Compound 2-4, 2-benzyl-N-(1-(4-cyanobenzyl)piperidin-4-yl)-2,3,4,5-tetrahydro-1H-pyrido[4,3-b]indole-8-carboxamide], the EC50 lay within 1000 to 5000 nM. Still for that read-out and setting: the same measure for `O=C(NC1CCN(Cc2ccc(C(F)(F)F)cc2)CC1)c1ccc2[nH]c3c(c2c1)CN(Cc1ccccc1)CC3` [Compound 2-5, 2-benzyl-N-(1-(4-trifluoromethylbenzyl)piperidin-4-yl)-2,3,4,5-tetrahydro-1N-pyrido[4,3-b]indole-8-carboxamide]: 1000 to 5000 nM.

`CC(C)(C)OC(=O)N1CCC(NC(=O)c2ccc3[nH]c4c(c3c2)CN(Cc2ccc(C(F)(F)F)cc2)CC4)CC1` [Compound 2-6, tert-butyl 4-(2-(4-(trifluoromethyl)benzyl)-2,3,4,5-tetrahydro-1H-pyrido[4,3-b]indole-8-carboxamido)piperidine-1-carboxylate] had an EC50 of 500 to 1000 nM.

For the compound `O=C(NC1CCN(Cc2ccncc2)CC1)c1ccc2[nH]c3c(c2c1)CN(Cc1ccccc1)CC3` [Compound 2-7, 2-benzyl-N-(1-(pyridin-4-ylmethyl)piperidin-4-yl)-2,3,4,5-tetrahydro-1H-pyrido[4,3-b]indole-8-carboxamide], the EC50 was in the range of 5000 to 10000 nM. Compound `O=C(NC1CCN(Cc2cccnc2)CC1)c1ccc2[nH]c3c(c2c1)CN(Cc1ccc(F)cc1)CC3` [Compound 2-8, 2-(4-fluorobenzyl)-N-(1-(pyridin-3-ylmethyl)piperidin-4-yl)-2,3,4,5-tetrahydro-1H-pyrido[4,3-b]indole-8-carboxamide] returned a half-maximal effective concentration (EC50) of 5000 to 10000 nM. Take `N#Cc1ccc(CN2CCC(NC(=O)c3ccc4[nH]c5c(c4c3)CN(Cc3ccc(F)cc3)CC5)CC2)cc1` [Compound 2-9, N-(1-(4-cyanobenzyl)piperidin-4-yl)-2-(4-fluorobenzyl)-2,3,4,5-tetrahydro-1H-pyrido[4,3-b]indole-8-carboxamide]: the EC50 was less than 500 nM. Same read-out and setting: the same measure for `O=C(NC1CCN(Cc2ccc(C(F)(F)F)cc2)CC1)c1ccc2[nH]c3c(c2c1)CN(Cc1ccc(F)cc1)CC3` [Compound 2-10, N-(1-(4-trifluoromethylbenzyl)piperidin-4-yl)-2-(4-fluorobenzyl)-2,3,4,5-tetrahydro-1H-pyrido[4,3-b]indole-8-carboxamide]: 500 to 1000 nM.

In turn, `O=C(NC1CCN(Cc2cccnc2)CC1)c1ccc2[nH]c3c(c2c1)CN(Cc1ccc(C(F)(F)F)cc1)CC3` [Compound 2-11, N-(1-(pyridin-3-ylmethyl)piperidin-4-yl)-2-(4-(trifluoromethyl)benzyl)-2,3,4,5-tetrahydro-1H-pyrido[4,3-b]indole-8-carboxamide] gave an EC50 of less than 500 nM. Compound `N#Cc1ccc(CN2CCC(NC(=O)c3ccc4[nH]c5c(c4c3)CN(Cc3ccc(C(F)(F)F)cc3)CC5)CC2)cc1` [Compound 2-12, N-(1-(4-cyanobenzyl)piperidin-4-yl)-2-(4-(trifluoromethyl)benzyl)-2,3,4,5-tetrahydro-1H-pyrido[4,3-b]indole-8-carboxamide] yielded an EC50 of less than 500 nM. `O=C(NC1CCN(Cc2ccc(C(F)(F)F)cc2)CC1)c1ccc2[nH]c3c(c2c1)CN(Cc1ccc(C(F)(F)F)cc1)CC3` [Compound 2-13, N-(1-(4-trifluoromethylbenzyl)piperidin-4-yl)-2-(4-(trifluoromethyl)benzyl)-2,3,4,5-tetrahydro-1H-pyrido[4,3-b]indole-8-carboxamide] yielded an EC50 of less than 500 nM.

For the compound `O=C(NC1CCN(CCc2ccccc2)CC1)c1ccc2[nH]c3c(c2c1)CN(Cc1ccc(C(F)(F)F)cc1)CC3` [Compound 2-14, N-(1-phenethylpiperidin-4-yl)-2-(4-(trifluoromethyl)benzyl)-2,3,4,5-tetrahydro-1H-pyrido[4,3-b]indole-8-carboxamide], the EC50 was less than 500 nM. Consider `O=C(NC1CCN(c2ccc(F)cc2)CC1)c1ccc2[nH]c3c(c2c1)CN(Cc1ccc(C(F)(F)F)cc1)CC3` [Compound 2-15, N-(1-(4-fluorophenyl)piperidin-4-yl)-2-(4-(trifluoromethyl)benzyl)-2,3,4,5-tetrahydro-1H-pyrido[4,3-b]indole-8-carboxamide], for which the EC50 was less than 500 nM.
